This note sets out measurements from patent US20130018039A1, “IMIDAZOLYL-IMIDAZOLES AS KINASE INHIBITORS” (priority 2010, published 2013).

This test concerns the target T1, RIPK2 (full length FLAG His tagged RIPK2; RIP2 kinase) (Homo sapiens, UniProt O43353).
T1 construct: Full length FLAG His tagged RIPK2 was purified from a Baculovirus expression system; FLAG (N); 6His (N); made in house; host or cells: Spodoptera frugiperda (Sf9) insect cells, baculovirus
In words: Fluorescent polarization based binding assay, competition with a fluorescently labeled ATP competitive ligand at the ATP binding pocket of RIPK2. As to conditions: pIC50s averaged, minimum of 2 experiments; fluorescent ligand 5 nM; read-out: mean pIC50 (converted). The source says: A fluorescent polarization based binding assay was developed to quantitate interaction of novel test compounds at the ATP binding pocket of RIPK2, by competition with a fluorescently labeled ATP competitive ligand. Full length FLAG His tagged RIPK2 was purified from a Baculovirus expression system and was used at a final assay concentration of twice the KDapparent. A fluorescent labeled ligand (5-({[2-({[3-({4-[(5-hydroxy-2-methylphenyl)amino]-2-pyrimidinyl}amino)phenyl]carbonyl}amino)ethyl]amino}carbonyl)-2-(6-hydroxy-3-oxo-3H-xanthen-9-yl)benzoic acid, prepared as described below) was used at a final assay concentration of 5 nM. Both the enzyme and ligand were prepared in solutions in 50 mM HEPES pH7.5, 150 mM NaCl, 10 mM MgCl2, 1 mM DTT, and 1 mM CHAPS. Test compounds were prepared in 100% DMSO and […] was dispensed to individual wells of a multiwell plate. Next, 5 ul RIPK2 was added to the test compounds at twice the final assay concentration, and incubated at room temperature for 10 minutes. […] Finally, samples were read on an instrument capable of measuring fluorescent polarization. Test compound inhibition was expressed as percent (%) inhibition of internal assay controls.
For concentration response experiments, normalized data were fit and pIC50s determined using conventional techniques. […]

T1 sequence (O43353 whole entry): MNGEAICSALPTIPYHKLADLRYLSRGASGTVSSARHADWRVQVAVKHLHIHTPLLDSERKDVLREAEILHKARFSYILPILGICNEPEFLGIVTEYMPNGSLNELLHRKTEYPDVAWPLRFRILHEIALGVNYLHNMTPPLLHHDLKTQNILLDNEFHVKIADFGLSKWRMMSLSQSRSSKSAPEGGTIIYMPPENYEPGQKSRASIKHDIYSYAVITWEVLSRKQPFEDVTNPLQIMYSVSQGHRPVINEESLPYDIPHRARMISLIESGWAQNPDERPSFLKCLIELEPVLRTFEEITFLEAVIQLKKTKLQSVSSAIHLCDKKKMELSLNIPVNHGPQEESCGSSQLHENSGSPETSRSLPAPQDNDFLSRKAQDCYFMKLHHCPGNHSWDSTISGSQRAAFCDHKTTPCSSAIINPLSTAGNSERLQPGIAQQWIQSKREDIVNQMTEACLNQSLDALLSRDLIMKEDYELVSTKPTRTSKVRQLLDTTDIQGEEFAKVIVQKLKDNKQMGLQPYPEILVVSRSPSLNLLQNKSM

`CNC(=O)c1ccc2c(c1)nc(-c1c[nH]c(-c3ccc(Cl)cc3)n1)n2Cc1ccccn1` [Example 2, 2-[2-(4-chlorophenyl)-1H-imidazol-4-yl]-N-methyl-1-(2-pyridinylmethyl)-1H-benzimidazole-5-carboxamide]: the IC50 was 10 µM. For `COCCNC(=O)c1ccc2c(c1)nc(-c1cnc(-c3ccccc3)[nH]1)n2CCOC` [Example 39, N,1-bis[2-(methyloxy)ethyl]-2-(2-phenyl-1H-imidazol-4-yl)-1H-benzimidazole-5-carboxamide], the IC50 was 10 µM.
